# According to patent US12145913B2, “Inhibition of Olig2 activity” (Curtana Pharmaceuticals, Inc., priority 2016, dated 2024):
# Tested on: GBM8 human glioblastoma cells
# Assay: GBM8 viability assay (Cell Titer Glo)
# Format: cell-based
# Conditions: 72 h, Table 1, 3 days incubation, luminescence
# Description: Cell culture medium was prepared from a NSA proliferation kit (Neurocult) and NeuroCult supplements (Stemcell Tech Cat. #05751) and treated with 20 μL of 10 μg/mL rh EGF, 10 μL of 10 μg/mL rh bFGF and 10 μL of 0.2% Heparin. In this medium, human glioblastoma cells were cultured in ultra-low attachment tissue culture flasks until 1×10^6 cells ml was achieved (GBM4 and GBM8 are distinct neurosphere cell cultures derived from these human patient tissues). GBM4 and GBM8 cells were dissociated and 10 mL of media containing 4000 human glioblastoma cells per 90 μL were transferred to an ultra-low binding 96-well plate and incubated at 37° C. overnight. On the following day, 10 μL of a 1% DMSO solution of test compound in assay medium was added to wells containing the cell suspension and the mixture incubated at 37° C. for 3 days. At this time, the plate was removed from the incubator and allowed to reach room temperature. After about 30 minutes, 50 μL of Cell Titer Glo solution was added to each well and the plate shaken for 1 minute at low speed. After 10 minutes luminescence was recorded using a Tecan Safire2 reader.
# Reduction in luminescence compared to DMSO only control wells was used to determine the percentage inhibition of cell growth. IC50s were calculated using the % inhibition of luminescence for serial dilutions of compounds fitted to a 4-parameter fit within the Prism (San Diego) curve fitting program. Tables 1 (compounds 3-188) and 2 (compounds 190-212) show the GBM4 IC50 and GBM8 IC50 for compounds described herein.
row,SMILES,IC50 [nM]
1,Cc1cc(NCCN(C)C)nc(NC(=O)Nc2ccc3ccccc3c2)n1 [Compound 6],< 500
2,Cc1cc(NCC(=O)N(C)C)nc(NC(=O)Nc2ccc3cnccc3c2)n1 [Compound 59],500 to 5000
3,"Cc1cc(NCCN)nc(NC(=O)Nc2ccc3cnccc3c2)n1 [Compound 52, 1-(4-((2-aminoethyl)amino)-6-methylpyrimidin-2-yl)-3-(isoquinolin-6-yl)urea]",500 to 5000
4,CNCCCN(C)c1cc(C)nc(NC(=O)Nc2ccc3ccccc3c2)n1 [Compound 9],500 to 5000
5,Cc1cc(NCCCCN(C)C)nc(NC(=O)Nc2ccc3ccccc3c2)n1 [Compound 17],< 500
6,"Cc1cc(NCCCN)nc(NC(=O)Nc2ccc3cnccc3c2)n1 [Compound 53, 1-(4-((3-aminopropyl)amino)-6-methylpyrimidin-2-yl)-3-(isoquinolin-6-yl)urea]",500 to 5000
7,"CONc1cc(C)nc(NC(=O)Nc2ccc3cnccc3c2)n1 [Compound 61, 1-(isoquinolin-6-yl)-3-(4-(methoxyamino)-6-methylpyrimidin-2-yl)urea]",< 500
8,"CNCCCCNc1cc(C)nc(NC(=O)Nc2ccc3cnccc3c2)n1 [Compound 65, 1-(isoquinolin-6-yl)-3-(4-methyl-6-((4-(methylamino)butyl)amino)pyrimidin-2-yl)urea]",< 500
9,"Cc1cc(NO)nc(NC(=O)Nc2ccc3cnccc3c2)n1 [Compound 62, 1-(4-(hydroxyamino)-6-methylpyrimidin-2-yl)-3-(isoquinolin-6-yl)urea]",< 500
10,"Cc1cc(NCCN)nc(NC(=O)Nc2ccc3ccccc3c2)n1 [Compound 5, 1-(4-((2-aminoethyl)amino)-6-methylpyrimidin-2-yl)-3-(naphthalen-2-yl)urea]",< 500
11,"CNC(=O)CCNc1cc(C)nc(NC(=O)Nc2ccc3ccccc3c2)n1 [Compound 43, N-methyl-3-((6-methyl-2-(3-(naphthalen-2-yl)ureido)pyrimidin-4-yl)amino)propanamide]",< 500
12,"Cc1cc(NCCc2ncc[nH]2)nc(NC(=O)Nc2ccc3ccccc3c2)n1 [Compound 22, 1-(4-((2-(1H-imidazol-2-yl)ethyl)amino)-6-methylpyrimidin-2-yl)-3-(naphthalen-2-yl)urea]",< 500
13,CCCNc1cc(C)nc(NC(=O)Nc2ccc3ccccc3c2)n1 [Compound 12],< 500
14,COCCNc1cc(C)nc(NC(=O)Nc2ccc3cnccc3c2)n1 [Compound 57],< 500
15,"CNCCNc1cc(C)nc(NC(=O)Nc2ccc3ccccc3c2)n1 [Compound 30, 1-(4-methyl-6-((2-(methylamino)ethyl)amino)pyrimidin-2-yl)-3-(naphthalen-2-yl)urea]",< 500
16,"Cc1cc(NCCC(N)=O)nc(NC(=O)Nc2ccc3ccccc3c2)n1 [Compound 26, 3-((6-methyl-2-(3-(naphthalen-2-yl)ureido)pyrimidin-4-yl)amino)propanamide]",< 500
17,CNc1cc(C)nc(NC(=O)Nc2ccc3cnccc3c2)n1 [Compound 55],< 500
18,CNc1cc(C)nc(NC(=O)Nc2ccc3ccccc3c2)n1 [Compound 20],< 500

# Next, values leading:
row,IC50 [nM],SMILES
1,500 to 5000,"Cc1cc(NCCC(=O)N(C)C)nc(NC(=O)Nc2ccc3cnccc3c2)n1 [Compound 76, 3-((2-(3-(isoquinolin-6-yl)ureido)-6-methylpyrimidin-4-yl)amino)-N,N-dimethylpropanamide]"
2,500 to 5000,"Cc1cc(NCCNS(C)(=O)=O)nc(NC(=O)Nc2cc3ccccc3cn2)n1 [Compound 93, N-(2-((2-(3-(isoquinolin-3-yl)ureido)-6-methylpyrimidin-4-yl)amino)ethyl)methanesulfonamide]"
3,< 500,"Cc1cc(NCCO)nc(NC(=O)Nc2ccc(OC(F)(F)F)cc2)n1 [Compound 145, 1-(4-((2-hydroxyethyl)amino)-6-methylpyrimidin-2-yl)-3-(4-(trifluoromethoxy)phenyl)urea]"
4,< 500,"CC(=O)NCCCNc1cc(C)nc(NC(=O)Nc2ccc(OC(C)C)cc2)n1 [Compound 142, N-(3-((2-(3-(4-isopropoxyphenyl)ureido)-6-methylpyrimidin-4-yl)amino)propyl)acetamide]"
5,< 500,"CC(=O)NCCCNc1cc(C)nc(NC(=O)Nc2ccc3occc3c2)n1 [Compound 85, N-(3-((2-(3-(benzofuran-5-yl)ureido)-6-methylpyrimidin-4-yl)amino)propyl)acetamide]"
6,< 500,"CC(=O)NCCCNc1cc(C)nc(NC(=O)Nc2ccc3cnccc3c2)n1 [Compound 66, N-(3-((2-(3-(isoquinolin-6-yl)ureido)-6-methylpyrimidin-4-yl)amino)propyl)acetamide]"
7,500 to 5000,"CC(=O)NCCCNc1cc(C)nc(NC(=O)Nc2ccc3ccccc3n2)n1 [Compound 100, N-(3-((6-methyl-2-(3-(quinolin-2-yl)ureido)pyrimidin-4-yl)amino)propyl)acetamide]"
8,500 to 5000,"O=C(Nc1ccc(Cl)c(Cl)c1)Nc1nccc(NO)n1 [Compound 158, 1-(3,4-dichlorophenyl)-3-(4-(hydroxyamino)pyrimidin-2-yl)urea]"
9,< 500,"Cc1cc(NCCCN(C)C)nc(NC(=O)Nc2ccc(OC(F)(F)F)c(Cl)c2)n1 [Compound 149, 1-(3-chloro-4-(trifluoromethoxy)phenyl)-3-(4-((3-(dimethylamino)propyl)amino)-6-methylpyrimidin-2-yl)urea]"
10,500 to 5000,"Cc1cc(NCCN)nc(NC(=O)Nc2ccc3ccccc3n2)n1 [Compound 98, 1-(4-((2-aminoethyl)amino)-6-methylpyrimidin-2-yl)-3-(quinolin-2-yl)urea]"
11,500 to 5000,"CONc1cc(C)nc(NC(=O)Nc2ccc(OC(F)(F)F)cc2)n1 [Compound 146, 1-(4-(methoxyamino)-6-methylpyrimidin-2-yl)-3-(4-(trifluoromethoxy)phenyl)urea]"
12,500 to 5000,"CC(C)c1cc(NO)nc(NC(=O)Nc2ccc(Cl)c(Cl)c2)n1 [Compound 185, 1-(3,4-dichlorophenyl)-3-(4-(hydroxyamino)-6-isopropyl-pyrimidin-2-yl)urea]"
13,< 500,"CNc1cc(C)nc(NC(=O)Nc2ccc(OC(F)(F)F)cc2)n1 [Compound 144, 1-(4-methyl-6-(methylamino)pyrimidin-2-yl)-3-(4-(trifluoromethoxy)phenyl)urea]"
14,500 to 5000,"Cc1cc(NCCCN(C)C)nc(NC(=O)Nc2ccc3ncccc3c2)n1 [Compound 105, 1-(4-((3-(dimethylamino)propyl)amino)-6-methylpyrimidin-2-yl)-3-(quinolin-6-yl)urea]"
15,500 to 5000,"Cc1cc(NCCCN(C)C)nc(NC(=O)Nc2cccc(-c3ccccc3)c2)n1 [Compound 131, 1-([1,1′-biphenyl]-3-yl)-3-(4-((3-(dimethylamino)propyl)amino)-6-methylpyrimidin-2-yl)urea]"
16,< 500,"Cc1cc(NCCCN)nc(NC(=O)Nc2ccc(C(=O)c3ccccc3)cc2)n1 [Compound 155, 1-(4-((3-aminopropyl)amino)-6-methylpyrimidin-2-yl)-3-(4-benzoylphenyl)urea]"
17,< 500,"Cc1cc(NCCN(C)C)nc(NC(=O)Nc2ccc3occc3c2)n1 [Compound 81, 1-(benzofuran-5-yl)-3-(4-((2-(dimethylamino)ethyl)amino)-6-methylpyrimidin-2-yl)urea]"
18,< 500,"Cc1cc(NCCNS(C)(=O)=O)nc(NC(=O)Nc2ccc3ccncc3c2)n1 [Compound 120, N-(2-((2-(3-(isoquinolin-7-yl)ureido)-6-methylpyrimidin-4-yl)amino)ethyl)methanesulfonamide]"
19,< 500,"Cc1cc(NO)nc(NC(=O)Nc2ccc(OC(F)(F)F)cc2)n1 [Compound 147, 1-(4-(hydroxyamino)-6-methylpyrimidin-2-yl)-3-(4-(trifluoromethoxy)phenyl)urea]"
20,< 500,"Cc1cc(NCCNS(C)(=O)=O)nc(NC(=O)Nc2ccc3occc3c2)n1 [Compound 86, N-(2-((2-(3-(benzofuran-5-yl)ureido)-6-methylpyrimidin-4-yl)amino)ethyl)methanesulfonamide]"
21,< 500,"CNC(=O)CCNc1cc(C)nc(NC(=O)Nc2ccc3cnccc3c2)n1 [Compound 77, 3-((2-(3-(isoquinolin-6-yl)ureido)-6-methylpyrimidin-4-yl)amino)-N-methylpropanamide]"
22,500 to 5000,"CNCCCNc1cc(C(C)C)nc(NC(=O)Nc2ccc(Cl)c(Cl)c2)n1 [Compound 184, 1-(3,4-dichlorophenyl)-3-(4-isopropyl-6-((3-(methyl-amino)propyl)amino)pyrimidin-2-yl)urea]"

# Same assay, conditions: 72 h, Table 2, 3 days incubation, luminescence
row,IC50 [nM],SMILES
1,500 to 5000,"CN(C)CCCNc1cc(C2CC2)nc(NC(=O)Nc2ccc(OC(F)(F)F)cc2)n1 [Compound 209, 1-(4-cyclopropyl-6-((3-(dimethylamino)propyl)amino)-pyrimidin-2-yl)-3-(4-(trifluoromethoxy)phenyl)urea]"
2,500 to 5000,"CNCCCNc1cc(C2CC2)nc(NC(=O)Nc2ccc(OC(F)(F)F)cc2)n1 [Compound 211, 1-(4-cyclopropyl-6-((3-(methylamino)propyl)amino)pyrimidin-2-yl)-3-(4-(trifluoromethoxy)phenyl)urea]"
3,500 to 5000,"CNCCCNc1cc(C(C)C)nc(NC(=O)Nc2ccc3ccccc3c2)n1 [Compound 192, 1-(4-isopropyl-6-((3-(methylamino)propyl)amino)pyrimidin-2-yl)-3-(naphthalen-2-yl)urea]"
